From patent US4038404A, “1,2,4-Triazole antimycotic compositions and use thereof” (Bayer Aktiengesellschaft, priority 1972, dated 1977)
Values after ≈ are worked out from the molar mass of the structure shown. Read-outs that look alike come from different tables or passages of the source.

What was measured:
Candida albicans [1] = assay: Candidosis of mice; format: in vivo, Mice of Type SPF-CF1; conditions: 2 × 100 mg/kg orally, one hour before and seven hours after infection, survivors on 6th day
Experimental: (§1) Description of the Experiment
Mice of Type SPF-CF1 were intravenously infected with 1-2 × 10^6 logarithmically growing Candida cells suspended in physiological sodium chloride solution.
One hour before and seven hours after infection the animals were treated orally with 2 × 100 mg of the preparations/kg of body weight.
Untreated animals died of the infection 3 to 6 days after infection. The survival rate on the 6th day after infection was about 5% in the case of untreated control animals.

Aspergillus niger = assay: Series dilution test in vitro, Aspergillus niger; format: cell-based; conditions: for MIC: Aspergillus niger, read-out: Minimum inhibitory concentration (MIC)
Experimental: (§2) 1. DETERMINATION OF THE ANTI-MYCOTIC ACTION SPECTRUM IN VITRO BY THE SERIES DILUTION TEST.
as §1
(§3) The nutrient substrates used were Sabourauds' milieu d'epreuve for dermatophytes and mould fungi and meat broth-glucose bouillon for blastomyces and biphase fungi. The incubation temperature was 28° C. and the incubation time was 24 to 96 hours.

Candida albicans [2] = assay: Series dilution test in vitro, Candida albicans; format: cell-based
Experimental: as §2, §1, §3

Microsporon felineum = assay: Series dilution test in vitro, Microsporon felineum; format: cell-based; conditions: 28° C., 24 to 96 hours; read-out: Minimum inhibitory concentration (MIC)
Experimental: as §2, §1, §3

[3] = system: Trichophyton mentagrophytes; assay: Series dilution test in vitro, Trichophyton mentagrophytes; format: cell-based; conditions: for MIC: Trichophyton mentagrophytes, read-out: Minimum inhibitory concentration (MIC)
Experimental: as §2, §1, §3

Penicillium commune = assay: Series dilution test in vitro, Penicillium commune; format: cell-based; conditions: read-out: Minimum inhibitory concentration (MIC)
Experimental: as §2, §1, §3

[4] = system: Trichophyton mentagrophytes; assay: Oral administration on Quinckeanum trichophytosis of white mice; format: in vivo; parameters: key to the marks not given beside the values; conditions: 100 mg/kg orally twice daily up to the eighth day of the infection
Experimental: b. Action, on Oral Administration, on Quinckeanum Trichophytosis of White Mice
It was possible to suppress the development of the Quinckeanum infection in mice with doses of 100 mg/kg of body weight given orally twice daily up to the eighth day of the infection.

[5] = system: Trichophyton mentagrophytes; assay: Topical application in experimental trichophytosis of guinea pigs; format: in vivo; parameters: key to the marks not given beside the values; conditions: 1% strength solution applied locally for 11 to 14 days
Text: a. Topical Application in Experimental Trichophytosis of Guinea Pigs (Pathogen: Trichophyton metagrophytes)
as §1
A 1% strength solution of the active compounds in a dimethylsulphoxide/glycerine/water mixture (1:3:6) or in polyethylene glycol 400 was applied locally for 11 to 14 days after the trichophytosis had been produced experimentally.

[6] = n.s. (no serum added), 28° C., 24 to 96 hours
[7] = w.s. (with 30% serum added), 28° C., 24 to 96 hours
[8] = n.s. (no serum added), * = 90% inhibition of growth, read-out: Minimum inhibitory concentration (MIC)
[9] = n.s. (no serum added), * = 90% inhibition of growth
[10] = w.s. (with 30% serum added), * = 90% inhibition of growth
[11] = n.s. (no serum added), 28° C., 24 to 96 hours, read-out: Minimum inhibitory concentration (MIC)
[12] = w.s. (with 30% serum added), 28° C., 24 to 96 hours, read-out: Minimum inhibitory concentration (MIC)

Compound	MIC (Aspergillus niger; [6]) [µg/mL]	MIC (Aspergillus niger; [7]) [µg/mL]	MIC (Candida albicans [2]; [8]) [µg/mL]	MIC (Microsporon felineum) [µg/mL]	MIC (Penicillium commune; 28° C., 24 to 96 hours) [µg/mL]	MIC (Candida albicans [2]; [11]) [µg/mL]	MIC (Candida albicans [2]; [12]) [µg/mL]	MIC [3, 6] [µg/mL]	MIC [3, 7] [µg/mL]	Action against Candida albicans (Candida albicans [1])	further results
O=C(c1ccc(Cl)cc1)C(Oc1ccc(Cl)cc1Cl)n1cncn1 (stereo not shown) [Example 6]	100 (≈ 261 µM)	> 100	10 (≈ 26.1 µM)	40 (≈ 105 µM)	> 100					+ (50% survivors on the 6th day after infection)	MIC (Candida albicans [2]; w.s. (with 30% serum added), * = 90% inhibition of growth, read-out: Minimum inhibitory concentration (MIC)): 100 µg/mL (≈ 261 µM); MIC [3, 9]: 4 µg/mL (≈ 10.5 µM); MIC [3, 10]: 10 µg/mL (≈ 26.1 µM)
CC(C)(C)C(=O)C(Oc1ccc(Cl)cc1)(c1ccccc1)n1cncn1 (stereo not shown) [Example 5, 1-[(4'-chlorophenoxy)]-1-[phenyl]-1-[1',2',4'triazolyl-(1')]-3,3-dimethyl-butan-2-one]	> 64	> 64		> 64	> 64	> 64					MIC [3, 9]: 1 µg/mL (≈ 2.7 µM); MIC [3, 10]: 32 µg/mL (≈ 86.5 µM)
CC(C)(C)C(=O)C(Oc1ccc(Cl)cc1)n1cncn1 (stereo not shown) [Example 27]										++++ (>80% survivors on the 6th day after infection)	Oral action against Trichophyton quinckeanum [4]: ++++; MIC (Aspergillus niger): 100 µg/mL (≈ 340 µM); Minimum inhibitory concentration (MIC) (Aspergillus niger; [7]): 100 µg/mL (≈ 340 µM); MIC (Candida albicans [2]; read-out: Minimum inhibitory concentration (MIC), n.s. (no serum added), 28° C., 24 to 96 hours): 40 µg/mL (≈ 136 µM); MIC (Candida albicans [2]; read-out: Minimum inhibitory concentration (MIC), w.s. (with 30% serum added), 28° C., 24 to 96 hours): 100 µg/mL (≈ 340 µM); Action against Trichophyton mentagrophytes [5]: ++; MIC [3]: 4 µg/mL (≈ 13.6 µM); Minimum inhibitory concentration (MIC) [3, 7]: 4 µg/mL (≈ 13.6 µM); MIC (Penicillium commune): > 100 µg/mL
CC(C)(C)C(=O)C(Oc1ccc(Cl)cc1Cl)n1cncn1 (stereo not shown) [Example 1, 1-[(2',4'-dichloro)-phenoxy]-1-[1',2', 4'-triazolyl-(1')]-3,3-dimethyl-butan-2-one]	100 (≈ 305 µM)	100 (≈ 305 µM)		100 (≈ 305 µM)	> 100	40 (≈ 122 µM)	40 (≈ 122 µM)	4 (≈ 12.2 µM)	4 (≈ 12.2 µM)	+ (50% survivors on the 6th day after infection)	
CC(C)(C)C(=O)C(Oc1ccc(-c2ccccc2)cc1)n1cncn1 (stereo not shown) [Example 12]		100 (≈ 298 µM)	100 (≈ 298 µM)	40 (≈ 119 µM)			100 (≈ 298 µM)	< 1	< 1	+ (50% survivors on the 6th day after infection)	Oral action against Trichophyton mentagrophytes [4]: ++; MIC (Aspergillus niger; [9]): 40 µg/mL (≈ 119 µM); Action against Trichophyton mentagrophytes [5]: ++++; MIC (Penicillium commune; * = 90% inhibition of growth): 100 µg/mL (≈ 298 µM)

Further lines, with some results ahead:

MIC (Aspergillus niger; [6]) [µg/mL]	MIC (Aspergillus niger; [7]) [µg/mL]	MIC (Candida albicans [2]; [8]) [µg/mL]	MIC (Microsporon felineum) [µg/mL]	MIC (Penicillium commune; 28° C., 24 to 96 hours) [µg/mL]	MIC (Candida albicans [2]; [11]) [µg/mL]	MIC (Candida albicans [2]; [12]) [µg/mL]	MIC [3, 6] [µg/mL]	MIC [3, 7] [µg/mL]	Compound	Action against Candida albicans (Candida albicans [1])	further results
				> 64	100 (≈ 361 µM)	> 64	8 (≈ 28.8 µM)	32 (≈ 115 µM)	CC(C)(C)C(=O)C(Oc1ccc(F)cc1)n1cncn1 (stereo not shown) [Example 9]	++ (60-80% survivors on the 6th day after infection)	
				> 64	> 64		32 (≈ 123 µM)	32 (≈ 123 µM)	CC(C)(C)C(=O)C(Oc1ccccc1)n1cncn1 (stereo not shown) [Example 15]		
				> 64	> 64		32 (≈ 88.2 µM)	> 64	CC(C)(C)C(=O)C(Oc1cc(Cl)c(Cl)cc1Cl)n1cncn1 (stereo not shown) [Example 20]		
		64 (≈ 223 µM)		> 64		> 64	32 (≈ 111 µM)	> 64	Cc1ccc(OC(C(=O)C(C)(C)C)n2cncn2)cc1C (stereo not shown) [Example 17]		
				> 64	> 64	> 64	8 (≈ 19.8 µM)	64 (≈ 158 µM)	CC(C)(C)C(=O)C(Oc1ccc(Cl)cc1Cl)(c1ccccc1)n1cncn1 (stereo not shown) [Example 21]		
